# Results as given in patent publication US5336763A, “Trisazo dye and dye composition containing the same” (Orient Chemical Industries, Ltd., priority 1992, dated 1994).
# Read-outs that look alike come from different tables or passages of the source.
# How the values were obtained:
# [1] = background; cited from earlier work
# strains TA98 = assay type: cell-based; settings: for AMES evaluation: strains TA98
# Procedure: Regarding various specimen solutions respectively containing trisazo dyes obtained in Examples 1 to 11 to the present invention and dyes of Comparative Examples 1 to 3, the number of mutant colonies was determined using strains TA98. 2. When the ratio is less than 2, it is "negative" and, when the ratio is more than 2, it is "positive", and the results are shown in Table. 1.
molecule,measurement,setting,value
Nc1ccc(N=Nc2ccc(N=Nc3c(S(=O)(=O)[O-])cc4cc(S(=O)(=O)[O-])c(N=Nc5ccc(N=Nc6ccc(N)cc6N)cc5)c(O)c4c3N)cc2)c(N)c1.[Na+].[Na+] [C.I. Direct Black 19],Ames test,[1],false positive or positive
Cc1cc(-c2ccc(N=Nc3c(S(=O)(=O)[O-])cc4cc(S(=O)(=O)[O-])c(N=Nc5ccccc5)c(O)c4c3N)c(C)c2)ccc1N=Nc1ccc(N)cc1N.[Na+].[Na+] [C.I. Direct Black 154],Ames test,[1],false positive or positive
CCC(C)c1ccc(N=Nc2c(S(=O)(=O)O)cc3cc(S(=O)(=O)O)c(N=Nc4ccc(Oc5ccc(Oc6ccc(N=Nc7ccc(O)cc7O)cc6)cc5)cc4)c(N)c3c2O)cc1 (stereo not drawn) [Ex. 6],Ames test: ratio of number of colonies to control,"strains TA98; 20 μg/plate, with S-9",1.01
same,Ames test: ratio of number of colonies to control,"strains TA98; 20 μg/plate, without S-9",1.01
same,Ames test: ratio of number of colonies to control,"strains TA98; 78 μg/plate, with S-9",1.00
same,Ames test: ratio of number of colonies to control,"strains TA98; 78 μg/plate, without S-9",1.04
same,Ames test: ratio of number of colonies to control,"strains TA98; 313 μg/plate, with S-9",0.98
same,Ames test: ratio of number of colonies to control,"strains TA98; 313 μg/plate, without S-9",1.16
same,Ames test: ratio of number of colonies to control,"strains TA98; 1250 μg/plate, with S-9",0.84
same,Ames test: ratio of number of colonies to control,"strains TA98; 1250 μg/plate, without S-9",0.97
same,Ames test: ratio of number of colonies to control,"strains TA98; 5000 μg/plate, with S-9",0.84
same,Ames test: ratio of number of colonies to control,"strains TA98; 5000 μg/plate, without S-9",0.91
same,AMES evaluation,strains TA98,"Negative (When the ratio is less than 2, it is ""negative"")"
Cc1ccccc1N=Nc1c(S(=O)(=O)O)cc2cc(S(=O)(=O)O)c(N=Nc3ccc(Oc4ccc(Oc5ccc(N=Nc6ccc(O)cc6O)cc5)cc4)cc3)c(N)c2c1O [Ex. 7],Ames test: ratio of number of colonies to control,"strains TA98; 20 μg/plate, with S-9",0.94
same,Ames test: ratio of number of colonies to control,"strains TA98; 20 μg/plate, without S-9",0.95
same,Ames test: ratio of number of colonies to control,"strains TA98; 78 μg/plate, with S-9",0.89
same,Ames test: ratio of number of colonies to control,"strains TA98; 78 μg/plate, without S-9",1.00
same,Ames test: ratio of number of colonies to control,"strains TA98; 313 μg/plate, with S-9",1.00
same,Ames test: ratio of number of colonies to control,"strains TA98; 313 μg/plate, without S-9",0.80
same,Ames test: ratio of number of colonies to control,"strains TA98; 1250 μg/plate, with S-9",1.05
same,Ames test: ratio of number of colonies to control,"strains TA98; 1250 μg/plate, without S-9",0.80
same,Ames test: ratio of number of colonies to control,"strains TA98; 5000 μg/plate, with S-9",1.05
same,Ames test: ratio of number of colonies to control,"strains TA98; 5000 μg/plate, without S-9",1.00
same,AMES evaluation,strains TA98,"Negative (When the ratio is less than 2, it is ""negative"")"
Nc1ccc(N=Nc2ccc(Oc3ccc(Oc4ccc(N=Nc5c(S(=O)(=O)O)cc6cc(S(=O)(=O)O)c(N=Nc7ccc(S(=O)(=O)O)cc7)c(O)c6c5N)cc4)cc3)cc2)c(O)c1 [Ex. 8],Ames test: ratio of number of colonies to control,"strains TA98; 20 μg/plate, with S-9",0.94
same,Ames test: ratio of number of colonies to control,"strains TA98; 20 μg/plate, without S-9",1.05
same,Ames test: ratio of number of colonies to control,"strains TA98; 78 μg/plate, with S-9",0.92
same,Ames test: ratio of number of colonies to control,"strains TA98; 78 μg/plate, without S-9",1.08
same,Ames test: ratio of number of colonies to control,"strains TA98; 313 μg/plate, with S-9",0.92
same,Ames test: ratio of number of colonies to control,"strains TA98; 313 μg/plate, without S-9",0.93
same,Ames test: ratio of number of colonies to control,"strains TA98; 1250 μg/plate, with S-9",0.93
same,Ames test: ratio of number of colonies to control,"strains TA98; 1250 μg/plate, without S-9",1.03
same,Ames test: ratio of number of colonies to control,"strains TA98; 5000 μg/plate, with S-9",1.03
same,Ames test: ratio of number of colonies to control,"strains TA98; 5000 μg/plate, without S-9",1.12
same,AMES evaluation,strains TA98,"Negative (When the ratio is less than 2, it is ""negative"")"
Nc1ccc(N=Nc2ccc(Oc3cccc(Oc4ccc(N=Nc5cc(S(=O)(=O)O)c6cc(S(=O)(=O)O)c(N=Nc7ccccc7)c(O)c6c5N)cc4)c3)cc2)c(O)c1 [Ex. 9],Ames test: ratio of number of colonies to control,"strains TA98; 20 μg/plate, with S-9",1.05
same,Ames test: ratio of number of colonies to control,"strains TA98; 20 μg/plate, without S-9",0.85
same,Ames test: ratio of number of colonies to control,"strains TA98; 78 μg/plate, with S-9",1.00
same,Ames test: ratio of number of colonies to control,"strains TA98; 78 μg/plate, without S-9",0.65
same,Ames test: ratio of number of colonies to control,"strains TA98; 313 μg/plate, with S-9",1.16
same,Ames test: ratio of number of colonies to control,"strains TA98; 313 μg/plate, without S-9",0.75
same,Ames test: ratio of number of colonies to control,"strains TA98; 1250 μg/plate, with S-9",1.00
same,Ames test: ratio of number of colonies to control,"strains TA98; 1250 μg/plate, without S-9",0.60
same,Ames test: ratio of number of colonies to control,"strains TA98; 5000 μg/plate, with S-9",0.53
same,Ames test: ratio of number of colonies to control,"strains TA98; 5000 μg/plate, without S-9",1.15
same,AMES evaluation,strains TA98,"Negative (When the ratio is less than 2, it is ""negative"")"
Nc1c(N=Nc2ccc(Oc3ccc(Oc4ccc(N=Nc5ccc(O)cc5O)cc4)cc3)cc2)cc(S(=O)(=O)O)c2ccc(N=Nc3ccccc3)c(O)c12 [Ex. 10],Ames test: ratio of number of colonies to control,"strains TA98; 20 μg/plate, with S-9",0.91
same,Ames test: ratio of number of colonies to control,"strains TA98; 20 μg/plate, without S-9",1.03
same,Ames test: ratio of number of colonies to control,"strains TA98; 78 μg/plate, with S-9",0.92
same,Ames test: ratio of number of colonies to control,"strains TA98; 78 μg/plate, without S-9",1.01
same,Ames test: ratio of number of colonies to control,"strains TA98; 313 μg/plate, with S-9",0.85
same,Ames test: ratio of number of colonies to control,"strains TA98; 313 μg/plate, without S-9",0.84
same,Ames test: ratio of number of colonies to control,"strains TA98; 1250 μg/plate, with S-9",1.09
same,Ames test: ratio of number of colonies to control,"strains TA98; 1250 μg/plate, without S-9",1.02
same,Ames test: ratio of number of colonies to control,"strains TA98; 5000 μg/plate, with S-9",0.90
same,Ames test: ratio of number of colonies to control,"strains TA98; 5000 μg/plate, without S-9",0.97
same,AMES evaluation,strains TA98,"Negative (When the ratio is less than 2, it is ""negative"")"
Nc1ccc2c(O)c(N=Nc3ccccc3)c(S(=O)(=O)O)cc2c1N=Nc1ccc(Oc2ccc(Oc3ccc(N=Nc4ccc(O)cc4O)cc3)cc2)cc1 [Ex. 11],Ames test: ratio of number of colonies to control,"strains TA98; 20 μg/plate, with S-9",1.25
same,Ames test: ratio of number of colonies to control,"strains TA98; 20 μg/plate, without S-9",0.96
same,Ames test: ratio of number of colonies to control,"strains TA98; 78 μg/plate, with S-9",1.64
same,Ames test: ratio of number of colonies to control,"strains TA98; 78 μg/plate, without S-9",1.00
same,Ames test: ratio of number of colonies to control,"strains TA98; 313 μg/plate, with S-9",1.34
same,Ames test: ratio of number of colonies to control,"strains TA98; 313 μg/plate, without S-9",0.81
same,Ames test: ratio of number of colonies to control,"strains TA98; 1250 μg/plate, with S-9",0.64
same,Ames test: ratio of number of colonies to control,"strains TA98; 1250 μg/plate, without S-9",1.04
same,Ames test: ratio of number of colonies to control,"strains TA98; 5000 μg/plate, with S-9",1.07
same,Ames test: ratio of number of colonies to control,"strains TA98; 5000 μg/plate, without S-9",1.35
same,AMES evaluation,strains TA98,"Negative (When the ratio is less than 2, it is ""negative"")"
"Cc1cc(-c2ccc(N=Nc3c(S(=O)(=O)O)cc4cc(S(=O)(=O)O)c(N=Nc5ccccc5)c(O)c4c3N)c(C)c2)ccc1N=Nc1ccc(N)cc1N [compound 1, reference compound]",Ames test: ratio of number of colonies to control,"strains TA98; 20 μg/plate, with S-9",1.92
same,Ames test: ratio of number of colonies to control,"strains TA98; 20 μg/plate, without S-9",0.72
same,Ames test: ratio of number of colonies to control,"strains TA98; 78 μg/plate, with S-9",2.35
same,Ames test: ratio of number of colonies to control,"strains TA98; 78 μg/plate, without S-9",0.68
same,Ames test: ratio of number of colonies to control,"strains TA98; 313 μg/plate, with S-9",2.50
same,Ames test: ratio of number of colonies to control,"strains TA98; 313 μg/plate, without S-9",0.84
same,Ames test: ratio of number of colonies to control,"strains TA98; 1250 μg/plate, with S-9",1.50
same,Ames test: ratio of number of colonies to control,"strains TA98; 1250 μg/plate, without S-9",0.76
same,Ames test: ratio of number of colonies to control,"strains TA98; 5000 μg/plate, with S-9",0.85
same,Ames test: ratio of number of colonies to control,"strains TA98; 5000 μg/plate, without S-9",0.96
same,AMES evaluation,strains TA98,"Positive (when the ratio is more than 2, it is ""positive"")"
"Nc1ccc(N=Nc2ccc(S(=O)(=O)c3ccc(N=Nc4c(S(=O)(=O)O)cc5cc(S(=O)(=O)O)c(N=Nc6ccccc6)c(O)c5c4N)cc3)cc2)c(O)c1 [compound 2, reference compound]",Ames test: ratio of number of colonies to control,"strains TA98; 20 μg/plate, with S-9",5.26
same,Ames test: ratio of number of colonies to control,"strains TA98; 20 μg/plate, without S-9",1.10
same,Ames test: ratio of number of colonies to control,"strains TA98; 78 μg/plate, with S-9",26.3
same,Ames test: ratio of number of colonies to control,"strains TA98; 78 μg/plate, without S-9",1.52
same,Ames test: ratio of number of colonies to control,"strains TA98; 313 μg/plate, with S-9",9.11
same,Ames test: ratio of number of colonies to control,"strains TA98; 313 μg/plate, without S-9",1.29
same,Ames test: ratio of number of colonies to control,"strains TA98; 1250 μg/plate, with S-9",1.23
same,Ames test: ratio of number of colonies to control,"strains TA98; 1250 μg/plate, without S-9",1.38
same,Ames test: ratio of number of colonies to control,"strains TA98; 5000 μg/plate, with S-9",1.61
same,Ames test: ratio of number of colonies to control,"strains TA98; 5000 μg/plate, without S-9",3.38
same,AMES evaluation,strains TA98,"Positive (when the ratio is more than 2, it is ""positive"")"
"Cc1cc(-c2ccc(N=Nc3c(S(=O)(=O)O)cc4cc(S(=O)(=O)O)c(N=Nc5ccc(S(=O)(=O)O)cc5)c(O)c4c3N)c(C)c2)ccc1N=Nc1ccc(O)cc1O [compound 3, reference compound]",Ames test: ratio of number of colonies to control,"strains TA98; 20 μg/plate, with S-9",1.20
same,Ames test: ratio of number of colonies to control,"strains TA98; 20 μg/plate, without S-9",0.92
same,Ames test: ratio of number of colonies to control,"strains TA98; 78 μg/plate, with S-9",2.24
same,Ames test: ratio of number of colonies to control,"strains TA98; 78 μg/plate, without S-9",1.00
same,Ames test: ratio of number of colonies to control,"strains TA98; 313 μg/plate, with S-9",4.16
same,Ames test: ratio of number of colonies to control,"strains TA98; 313 μg/plate, without S-9",2.56
same,Ames test: ratio of number of colonies to control,"strains TA98; 1250 μg/plate, with S-9",1.12
same,Ames test: ratio of number of colonies to control,"strains TA98; 1250 μg/plate, without S-9",3.56
same,Ames test: ratio of number of colonies to control,"strains TA98; 5000 μg/plate, with S-9",0.16
same,Ames test: ratio of number of colonies to control,"strains TA98; 5000 μg/plate, without S-9",0.96
same,AMES evaluation,strains TA98,"Positive (when the ratio is more than 2, it is ""positive"")"
C.I. Direct Black 168,Ames test,[1],false positive or positive
